Where two headings read alike, the source gives them in different places.
Legend:
Aquatic toxicity = settings: for Aquatic toxicity (in words): 1 and 2 compared to MDA
Experimental: (§1) Toxicity Testing. In vitro toxicity tests were conducted for compounds 1-3.

Mutagenicity (Ames test) = format: cell-based
Experimental: as §1

In vitro cytotoxicity = format: cell-based; settings: concentration at which cytotoxicity was observed; solubility limit 10 μg/mL for 3
Experimental: as §1

LD50 (toxicity testing) = settings: listed among in vitro toxicity test results

| Compound | Aquatic Toxicity (Aquatic toxicity) [mg/L] | Aquatic toxicity (in words) (Aquatic toxicity) | Mutagenicity (Ames test) (Mutagenicity (Ames test)) | Cytotoxicity (In vitro cytotoxicity) | LD50 (LD50 (toxicity testing); read-out: LD50) [mg/kg] | LD50 (LD50 (toxicity testing)) [mg/kg] | Mutagenicity (Ames test) (Mutagenicity (Ames test); listed as Compound 3) |
| --- | --- | --- | --- | --- | --- | --- | --- |
| Nc1ccc(CCc2cc(N)cc(N)c2)cc1 [compound 2] | 52.7 | substantially reduced aquatic toxicity compared to MDA | Mutagenic | >/=3.2 μg/mL | 820 |  |  |
| Nc1ccc(Cc2ccc(N)cc2)cc1 [MDA, Methylene dianiline, reference compound] | 14.30 |  | Mutagenic |  |  | 944 |  |
| Nc1ccc(Oc2ccc(CCc3cc(Oc4ccc(N)cc4)cc(Oc4ccc(N)cc4)c3)cc2)cc1 [compound 3] | >2000 | remarkably low aquatic toxicity | Not mutagenic | None observed | 568 |  | not mutagenic |
| Nc1ccc(/C=C/c2cc(N)cc(N)c2)cc1 [compound 1, (E)-5-(4-aminostyryl)benzene-1,3-diamine] | 1153 | substantially reduced aquatic toxicity compared to MDA | Mutagenic | >/=3.2 μg/mL | 301 |  |  |
